Laboratory results published in ChEMBL document CHEMBL3112452, “Neutral β-Lactams Inactivate High Molecular Mass Penicillin-Binding Proteins of Class B1, Including PBP2a of MRSA” (ACS Med Chem Lett, 2014).
In brackets after ≈: the same amount, converted by molar mass.

Key:
[1] = Inhibition of Escherichia coli BL21(DE3) PBP2 after 30 mins by SDS-PAGE
Bacillus licheniformis = assay: Antimicrobial activity against Bacillus licheniformis NRS 1264 after 18 hrs by serial dilution method; format: functional; conditions: NRS 1264, 18 h
[2] = Inhibition of Staphylococcus aureus PBP2a
[3] = Inhibition of Escherichia coli PBP1a/1b after 30 mins by SDS-PAGE
[4] = target: T1, Penicillin-binding protein 4 (Bacillus subtilis (strain 168), UniProt P40750); assay: Inhibition of Bacillus subtilis 168 PBP4 after 30 mins by SDS-PAGE; parameters: species or system Bacillus subtilis subsp. subtilis str. 168
T1 sequence (P40750 whole entry): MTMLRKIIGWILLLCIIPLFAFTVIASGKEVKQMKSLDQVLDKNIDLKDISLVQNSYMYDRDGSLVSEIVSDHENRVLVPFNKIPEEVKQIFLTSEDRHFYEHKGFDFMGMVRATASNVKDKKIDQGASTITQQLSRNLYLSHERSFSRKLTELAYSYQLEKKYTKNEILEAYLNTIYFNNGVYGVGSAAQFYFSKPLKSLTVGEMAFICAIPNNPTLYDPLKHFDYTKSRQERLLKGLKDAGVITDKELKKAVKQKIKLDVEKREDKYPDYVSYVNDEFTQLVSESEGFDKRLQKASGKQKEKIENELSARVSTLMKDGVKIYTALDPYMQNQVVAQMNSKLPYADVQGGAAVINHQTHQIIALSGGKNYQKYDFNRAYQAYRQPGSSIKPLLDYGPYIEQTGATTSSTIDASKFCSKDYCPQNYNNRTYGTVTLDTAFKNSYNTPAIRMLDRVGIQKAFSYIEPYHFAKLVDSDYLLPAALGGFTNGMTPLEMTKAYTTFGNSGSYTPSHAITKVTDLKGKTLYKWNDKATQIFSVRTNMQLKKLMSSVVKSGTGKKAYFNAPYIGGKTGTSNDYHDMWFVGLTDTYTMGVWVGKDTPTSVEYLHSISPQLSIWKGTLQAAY

Bacillus subtilis = assay: Antimicrobial activity against wild type Bacillus subtilis 168 after 18 hrs by serial dilution method; format: functional; conditions: subsp. subtilis str. 168, 18 h
[5] = Inhibition of Bacillus subtilis 168 PBP1 after 30 mins by SDS-PAGE; parameters: species or system Bacillus subtilis subsp. subtilis str. 168
[6] = target: T2, D-alanyl-D-alanine carboxypeptidase DacA (Bacillus subtilis (strain 168), UniProt P08750); assay: Inhibition of Bacillus subtilis 168 PBP5 after 30 mins by SDS-PAGE; parameters: species or system Bacillus subtilis subsp. subtilis str. 168
T2 sequence (P08750 whole entry): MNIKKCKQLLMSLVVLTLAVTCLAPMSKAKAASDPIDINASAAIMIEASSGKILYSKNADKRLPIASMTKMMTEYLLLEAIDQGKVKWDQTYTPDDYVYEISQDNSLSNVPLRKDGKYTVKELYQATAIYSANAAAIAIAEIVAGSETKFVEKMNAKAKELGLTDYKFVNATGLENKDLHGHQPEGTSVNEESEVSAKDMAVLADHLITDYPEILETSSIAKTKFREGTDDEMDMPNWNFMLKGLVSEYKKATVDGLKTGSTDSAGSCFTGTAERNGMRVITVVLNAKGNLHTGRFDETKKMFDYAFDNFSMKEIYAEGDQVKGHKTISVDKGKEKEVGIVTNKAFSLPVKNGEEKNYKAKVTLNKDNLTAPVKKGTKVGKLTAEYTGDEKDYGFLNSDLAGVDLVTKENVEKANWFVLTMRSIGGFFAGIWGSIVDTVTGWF

[7] = Inhibition of Bacillus subtilis 168 PBP2 after 30 mins by SDS-PAGE; parameters: species or system Bacillus subtilis subsp. subtilis str. 168
[8] = system: Staphylococcus epidermidis; assay: Antimicrobial activity against wild type Staphylococcus epidermidis ATCC 12228 after 18 hrs by serial dilution method; format: functional; conditions: ATCC 12228, 18 h
Escherichia coli = assay: Antimicrobial activity against wild type Escherichia coli MM 294 after 18 hrs by serial dilution method; format: functional; conditions: MM 294, 18 h
[9] = Inhibition of Escherichia coli PBP5/6 after 30 mins by SDS-PAGE
[10] = Inhibition of Escherichia coli PBP4 after 30 mins by SDS-PAGE
[11] = Inhibition of Escherichia coli PBP3 after 30 mins by SDS-PAGE
[12] = target: T3, Penicillin-binding protein 3 (Bacillus subtilis (strain 168), UniProt P42971); assay: Inhibition of Bacillus subtilis 168 PBP3 after 30 mins by SDS-PAGE; parameters: species or system Bacillus subtilis subsp. subtilis str. 168
T3 sequence (P42971 whole entry): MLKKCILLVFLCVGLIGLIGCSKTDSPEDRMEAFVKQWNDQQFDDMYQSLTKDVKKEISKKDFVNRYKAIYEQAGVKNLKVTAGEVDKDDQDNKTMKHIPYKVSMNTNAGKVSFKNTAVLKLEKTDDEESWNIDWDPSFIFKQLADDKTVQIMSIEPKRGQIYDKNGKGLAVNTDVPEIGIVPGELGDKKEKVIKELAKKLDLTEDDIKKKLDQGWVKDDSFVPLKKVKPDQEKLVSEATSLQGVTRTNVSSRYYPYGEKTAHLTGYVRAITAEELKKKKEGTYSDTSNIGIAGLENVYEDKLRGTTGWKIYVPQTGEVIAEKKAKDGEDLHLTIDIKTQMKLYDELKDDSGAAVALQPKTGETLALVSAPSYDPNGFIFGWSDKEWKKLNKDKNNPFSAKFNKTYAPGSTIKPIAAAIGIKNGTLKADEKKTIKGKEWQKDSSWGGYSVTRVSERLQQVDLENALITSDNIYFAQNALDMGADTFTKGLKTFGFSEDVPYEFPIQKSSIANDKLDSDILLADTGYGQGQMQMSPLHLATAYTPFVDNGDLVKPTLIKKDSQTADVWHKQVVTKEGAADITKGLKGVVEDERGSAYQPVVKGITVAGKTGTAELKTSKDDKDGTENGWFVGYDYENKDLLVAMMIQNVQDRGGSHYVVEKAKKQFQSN

Structure (SMILES)	Ki [1] [M⁻¹ s⁻¹]	MIC (Bacillus licheniformis) [µM]	Second-order inactivation rate constant (kinact/Ki) [2] [M⁻¹ s⁻¹]	Ki [3] [M⁻¹ s⁻¹]	Ki [4] [M⁻¹ s⁻¹]	MIC (Bacillus subtilis) [µM]	Ki [5] [M⁻¹ s⁻¹]	Ki [6] [M⁻¹ s⁻¹]	Ki [7] [M⁻¹ s⁻¹]	MIC [8] [µM]	MIC (Escherichia coli) [µM]	Ki [9] [M⁻¹ s⁻¹]	Ki [10] [M⁻¹ s⁻¹]	Ki [11] [M⁻¹ s⁻¹]	Ki [12] [M⁻¹ s⁻¹]	kinact/Ki [5] [M⁻¹ s⁻¹]	kinact/Ki [7] [M⁻¹ s⁻¹]
CC1(C)S[C@@H]2[C@H](NC(=O)COc3ccccc3)C(=O)N2[C@H]1C(N)=O	1.5	1.5 (≈ 0.524 µg/mL)	2	0.74	190	2.3 (≈ 0.804 µg/mL)	340	17	440	95 (≈ 33.2 µg/mL)	10000 (≈ 3490 µg/mL)	0.6	30	18	5.3		
COC(=O)[C@@H]1N2C(=O)[C@@H](NC(=O)COc3ccccc3)[C@H]2SC1(C)C			1.5			25 (≈ 9.11 µg/mL)											
CC1=CN2C(=O)[C@@H](NC(=O)[C@H](N)c3ccccc3)[C@H]2SC1			0.34														
CC(=O)OCC1=C(C(N)=O)N2C(=O)[C@@H](NC(=O)Cc3cccs3)[C@H]2SC1			1.3														
CC1(C)S[C@@H]2[C@H](NC(=O)COc3ccccc3)C(=O)N2[C@H]1C(=O)O [PENICILLIN V]	128	1500 (≈ 526 µg/mL)		184		1400 (≈ 491 µg/mL)		620		370 (≈ 130 µg/mL)	750 (≈ 263 µg/mL)	96	3200	420	28	110000	19000
